Assay results: patent US6420383B1, “Thiepino[3,2-b]dihydropyridines and related compositions and methods” (Ortho-McNeil Pharmaceutical, Inc., priority 2000, dated 2002)
Each block holds one compound with its values, some of them ahead of it.

Target: T1, calcium channel (3H-nitrendipine binding, heart membranes) (Oryctolagus cuniculus, UniProt P15381)
T1 construct: from tissue; host or cells: rabbit heart membrane preparation
Assay: Assay for inhibition of nitrendipine binding (calcium channel antagonist activity)
Conditions: 3H-nitrendipine 0.05-0.50 nM, rabbit heart membranes, 90 minutes at 4° C.
Protocol: Female, New Zealand white rabbits (1-2 kg) are sacrificed by cervical dislocation, and the heart is immediately removed, cleaned and chopped into small pieces. The tissue is homogenized in 5×times volume of 0.05M Hepes buffer, pH 7.4. The homogenate is centrifuged at 4000 g for 10 minutes, and the supernatant is re-centrifuged at 42,000×g for 90 minutes. The resulting membrane pellet is re-suspended (0.7 ml/g weight) in 0.05M Hepes, pH 7.4 and stored at […] until used. Each tube of the binding assay contains ^3H-nitrendipine (0.05-0.50 nM), buffer, membranes (0.10 ml), and test compound in a total volume of 1.0 ml. After 90 minutes at 4° C., the bound nitrendipine is separated from the unbound by filtration on Whatman GF/C filters. After rinsing, the filters are dried and counted in a liquid scintillation counter.
Non-specific binding of ^3H-nitrendipine (that amount bound in the presence of excess unlabelled nitrendipine) is subtracted from the total bound to obtain specifically bound radiolabeled nitrendipine. The amount of specifically bound nitrendipine in the presence of a test compound is compared to that amount bound in the absence of a compound. A percent displacement (or inhibition) can then be calculated.

T1 sequence (P15381 whole entry, other chains not shown): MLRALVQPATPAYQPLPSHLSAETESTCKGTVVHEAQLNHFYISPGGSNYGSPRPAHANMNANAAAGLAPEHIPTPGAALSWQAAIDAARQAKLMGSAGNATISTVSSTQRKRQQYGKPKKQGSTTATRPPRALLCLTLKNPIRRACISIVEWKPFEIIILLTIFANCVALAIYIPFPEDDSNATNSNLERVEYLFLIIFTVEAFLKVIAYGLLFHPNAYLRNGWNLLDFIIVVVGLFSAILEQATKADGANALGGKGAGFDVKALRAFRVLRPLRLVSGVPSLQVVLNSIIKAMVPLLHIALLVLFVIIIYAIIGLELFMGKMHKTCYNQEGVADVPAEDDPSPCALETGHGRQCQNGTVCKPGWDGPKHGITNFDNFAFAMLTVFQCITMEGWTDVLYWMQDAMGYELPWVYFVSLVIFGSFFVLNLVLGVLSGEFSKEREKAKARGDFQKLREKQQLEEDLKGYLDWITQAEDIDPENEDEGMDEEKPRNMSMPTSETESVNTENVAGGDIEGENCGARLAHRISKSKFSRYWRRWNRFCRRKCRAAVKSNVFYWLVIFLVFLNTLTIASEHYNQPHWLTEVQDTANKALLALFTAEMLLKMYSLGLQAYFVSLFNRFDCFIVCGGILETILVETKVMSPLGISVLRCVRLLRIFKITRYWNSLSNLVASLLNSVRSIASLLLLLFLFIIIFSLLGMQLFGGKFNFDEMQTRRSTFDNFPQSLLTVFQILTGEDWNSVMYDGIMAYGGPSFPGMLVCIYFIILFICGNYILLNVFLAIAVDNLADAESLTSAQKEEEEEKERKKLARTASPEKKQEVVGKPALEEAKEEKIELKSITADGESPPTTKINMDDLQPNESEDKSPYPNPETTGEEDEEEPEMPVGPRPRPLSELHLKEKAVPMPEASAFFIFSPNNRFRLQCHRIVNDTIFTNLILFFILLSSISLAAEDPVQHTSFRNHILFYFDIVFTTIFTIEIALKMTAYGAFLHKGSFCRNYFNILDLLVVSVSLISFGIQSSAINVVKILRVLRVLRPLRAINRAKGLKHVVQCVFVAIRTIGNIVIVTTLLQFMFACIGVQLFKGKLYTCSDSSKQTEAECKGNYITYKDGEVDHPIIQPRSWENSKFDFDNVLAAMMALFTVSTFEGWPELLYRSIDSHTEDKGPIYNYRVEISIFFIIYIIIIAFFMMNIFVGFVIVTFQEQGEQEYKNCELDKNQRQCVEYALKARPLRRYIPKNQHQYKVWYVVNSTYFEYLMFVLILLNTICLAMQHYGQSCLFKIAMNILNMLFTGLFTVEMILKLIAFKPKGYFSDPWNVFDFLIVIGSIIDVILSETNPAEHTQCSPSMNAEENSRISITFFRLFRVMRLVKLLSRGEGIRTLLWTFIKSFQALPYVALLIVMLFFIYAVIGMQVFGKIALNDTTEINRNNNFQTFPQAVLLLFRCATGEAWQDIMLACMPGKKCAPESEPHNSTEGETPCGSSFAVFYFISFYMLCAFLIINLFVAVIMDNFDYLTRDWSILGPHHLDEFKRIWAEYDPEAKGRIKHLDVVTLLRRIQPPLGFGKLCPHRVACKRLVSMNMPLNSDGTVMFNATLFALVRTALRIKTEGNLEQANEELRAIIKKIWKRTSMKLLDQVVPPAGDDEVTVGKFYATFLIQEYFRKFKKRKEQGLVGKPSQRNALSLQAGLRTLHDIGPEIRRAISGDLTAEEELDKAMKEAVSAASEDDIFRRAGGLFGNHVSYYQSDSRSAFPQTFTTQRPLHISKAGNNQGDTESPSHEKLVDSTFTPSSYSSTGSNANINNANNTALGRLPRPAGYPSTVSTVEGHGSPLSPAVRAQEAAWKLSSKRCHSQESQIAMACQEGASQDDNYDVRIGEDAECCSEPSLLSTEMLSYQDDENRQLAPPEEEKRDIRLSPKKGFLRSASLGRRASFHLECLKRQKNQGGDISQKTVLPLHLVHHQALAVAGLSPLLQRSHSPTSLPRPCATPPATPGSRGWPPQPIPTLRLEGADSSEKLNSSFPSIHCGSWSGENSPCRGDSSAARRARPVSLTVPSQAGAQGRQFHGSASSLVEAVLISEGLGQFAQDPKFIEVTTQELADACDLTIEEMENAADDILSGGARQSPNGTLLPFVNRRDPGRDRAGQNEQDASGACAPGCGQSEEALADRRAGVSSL
T1 sequence (P13806 27-960 partner limits assumed, other chains not shown): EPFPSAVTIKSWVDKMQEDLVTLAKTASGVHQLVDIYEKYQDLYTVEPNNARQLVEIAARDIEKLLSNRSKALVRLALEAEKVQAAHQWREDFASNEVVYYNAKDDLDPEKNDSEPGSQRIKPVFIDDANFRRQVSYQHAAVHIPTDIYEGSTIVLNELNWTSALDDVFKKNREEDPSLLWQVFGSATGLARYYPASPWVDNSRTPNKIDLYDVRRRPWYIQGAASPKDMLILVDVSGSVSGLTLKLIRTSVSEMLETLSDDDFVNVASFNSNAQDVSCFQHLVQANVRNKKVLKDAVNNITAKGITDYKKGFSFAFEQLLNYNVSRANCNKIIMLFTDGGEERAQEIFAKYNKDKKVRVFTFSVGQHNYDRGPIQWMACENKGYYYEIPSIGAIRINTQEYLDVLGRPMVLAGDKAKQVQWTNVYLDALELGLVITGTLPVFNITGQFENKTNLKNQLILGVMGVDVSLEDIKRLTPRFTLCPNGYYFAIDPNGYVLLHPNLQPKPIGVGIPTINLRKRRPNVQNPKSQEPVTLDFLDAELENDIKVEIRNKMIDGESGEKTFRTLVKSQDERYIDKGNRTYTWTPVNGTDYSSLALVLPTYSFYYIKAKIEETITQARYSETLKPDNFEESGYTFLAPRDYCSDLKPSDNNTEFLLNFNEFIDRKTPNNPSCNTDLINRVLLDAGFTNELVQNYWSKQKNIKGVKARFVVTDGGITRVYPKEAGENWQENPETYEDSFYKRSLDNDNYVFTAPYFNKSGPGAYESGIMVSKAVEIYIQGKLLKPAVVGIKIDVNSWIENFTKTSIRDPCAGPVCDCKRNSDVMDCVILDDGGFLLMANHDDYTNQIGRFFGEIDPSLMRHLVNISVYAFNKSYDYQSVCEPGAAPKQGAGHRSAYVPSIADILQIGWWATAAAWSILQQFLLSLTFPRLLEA
T1 sequence (P13806 961-1106 partner limits assumed, other chains not shown): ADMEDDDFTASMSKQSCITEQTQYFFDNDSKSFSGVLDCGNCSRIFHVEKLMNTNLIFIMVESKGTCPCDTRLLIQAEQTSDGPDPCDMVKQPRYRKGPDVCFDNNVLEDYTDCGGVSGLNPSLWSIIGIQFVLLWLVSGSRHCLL

SMILES: CCOC(=O)C1=C(c2ccccc2)NC2=C(C1c1ccc(Cl)cc1)S(=O)(=O)CCCC2 (centres unmarked) [Compound 1, Thiepino[3,2-b]pyridine-3-carboxylic acid, 4-(4-chlorophenyl)-1,4,6,7,8,9-hexahydro-2-phenyl-, ethyl ester, 5,5-dioxide]
- IC50: 2000 nM

SMILES: CCOC(=O)C1=C(c2ccccc2)NC2=C(C1c1cccc(Cl)c1Cl)S(=O)(=O)CCCC2 (centres unmarked) [Compound 2, Thiepino[3,2-b]pyridine-3-carboxylic acid, 4-(2,3-dichlorophenyl)-1,4,6,7,8,9-hexahydro-2-phenyl-, ethyl ester, 5,5-dioxide]
- IC50: 115 nM

SMILES: COC(=O)C1=C(c2ccccc2)NC2=C(C1c1cccc(Cl)c1)S(=O)(=O)CCCC2 (centres unmarked) [Compound 3, Thiepino[3,2-b]pyridine-3-carboxylic acid, 4-(3-chlorophenyl)-1,4,6,7,8,9-hexahydro-2-phenyl-, methyl ester, 5,5-dioxide]
- IC50: 2000 nM

SMILES: CN(CCOC(=O)C1=C(c2ccccc2)NC2=C(C1c1cccc(Cl)c1)S(=O)(=O)CCCC2)Cc1ccccc1 (centres unmarked) [Compound 4, Thiepino[3,2-b]pyridine-3-carboxylic acid, 4-(3-chlorophenyl)-1,4,6,7,8,9-hexahydro-2-phenyl-, 2-[methyl(phenylmethyl)amino]ethyl ester, 5,5-dioxide]
- IC50: 192 nM

SMILES: CN(CCOC(=O)C1=C(c2ccccc2)NC2=C(C1c1c(O)cccc1Cl)S(=O)(=O)CCCC2)Cc1ccccc1 (centres unmarked) [Compound 5, Thiepino[3,2-b]pyridine-3-carboxylic acid, 4-(2-chloro-6-hydroxyphenyl)-1,4,6,7,8,9-hexahydro-2-phenyl-, 2-[methyl(phenylmethyl)amino]ethyl ester, 5,5-dioxide]
- IC50: 2000 nM

SMILES: CN(CCOC(=O)C1=C(c2ccccc2)NC2=C(C1c1ccccc1Cl)S(=O)(=O)CCCC2)Cc1ccccc1 (centres unmarked) [Compound 6, Thiepino[3,2-b]pyridine-3-carboxylic acid, 4-(2-chlorophenyl)-1,4,6,7,8,9-hexahydro-2-phenyl-, 2-[methyl(phenylmethyl)amino]ethyl ester, 5,5-dioxide]
- IC50: 312 nM

SMILES: CCOC(=O)C1=C(c2ccccc2)NC2=C(C1c1c(O)cccc1Cl)S(=O)(=O)CCCC2 (centres unmarked) [Compound 7, Thiepino[3,2-b]pyridine-3-carboxylic acid, 4-(2-chloro-6-hydroxyphenyl)-1,4,6,7,8,9-hexahydro-2-phenyl-, ethyl ester, 5,5-dioxide]
- IC50: 2000 nM

SMILES: CCOC(=O)C1=C(c2ccccc2)NC2=C(C1c1ccccc1Cl)S(=O)(=O)CCCC2 (centres unmarked) [Compound 8, Thiepino[3,2-b]pyridine-3-carboxylic acid, 4-(2-chlorophenyl)-1,4,6,7,8,9-hexahydro-2-phenyl-, ethyl ester, 5,5-dioxide]
- IC50: 580 nM

SMILES: CC1=C(C(=O)OCCN(C)Cc2cccs2)C(c2c(F)cccc2Cl)C2=C(CCCCS2(=O)=O)N1 (centres unmarked) [Compound 9, Thiepino[3,2-b]pyridine-3-carboxylic acid, 4-(2-chloro-6-fluorophenyl)-1,4,6,7,8,9-hexahydro-2-methyl-, 2-[methyl(2-thienylmethyl)amino]ethyl ester, 5,5-dioxide]
- IC50: 29.5 nM

SMILES: CCOC(=O)C1=C(c2ccccc2)NC2=C(C1c1c(F)c(F)c(F)c(F)c1F)S(=O)(=O)CCCC2 (centres unmarked) [Compound 10, Thiepino[3,2-b]pyridine-3-carboxylic acid, 1,4,6,7,8,9-hexahydro-4-(2,3,4,5,6-pentafluorophenyl)-2-phenyl-, ethyl ester, 5,5-dioxide]
- IC50: 684 nM

SMILES: CCOC(=O)C1=C(c2ccccc2)NC2=C(C1c1cccc([N+](=O)[O-])c1)S(=O)(=O)CCCC2 (centres unmarked) [Compound 11, Thiepino[3,2-b]pyridine-3-carboxylic acid, 1,4,6,7,8,9-hexahydro-4-(3-nitrophenyl)-2-phenyl-, ethyl ester, 5,5-dioxide]
- IC50: 6950 nM

SMILES: CC1=C(C(=O)OCCN(C)Cc2cccs2)C(c2c(F)c(F)c(F)c(F)c2F)C2=C(CCCCS2(=O)=O)N1 (centres unmarked) [Compound 12, Thiepino[3,2-b]pyridine-3-carboxylic acid, 1,4,6,7,8,9-hexahydro-2-methyl-4-(2,3,4,5,6-pentafluorophenyl)-, 2-[methyl(2-thienylmethyl)amino]ethyl ester, 5,5-dioxide]
- IC50: 5.9 nM

SMILES: CC1=C(C(=O)OCCN(C)Cc2cccs2)C(c2cccc([N+](=O)[O-])c2)C2=C(CCCCS2(=O)=O)N1 (centres unmarked) [Compound 13, Thiepino[3,2-b]pyridine-3-carboxylic acid, 1,4,6,7,8,9-hexahydro-2-methyl-4-(3-nitrophenyl)-, 2-[methyl(2-thienylmethyl)amino]ethyl ester, 5,5-dioxide]
- IC50: 7.1 nM

SMILES: CC1=C(C(=O)OCCN(C)Cc2cccs2)C(c2ccccc2Cl)C2=C(CCCCS2(=O)=O)N1 (centres unmarked) [Compound 14, Thiepino[3,2-b]pyridine-3-carboxylic acid, 4-(2-chlorophenyl)-1,4,6,7,8,9-hexahydro-2-methyl-, 2-[methyl(2-thienylmethyl)amino]ethyl ester, 5,5-dioxide]
- IC50: 15 nM

The remaining lines, values ahead:

- IC50: 2500 nM
SMILES: CCOC(=O)C1=C(c2cccs2)NC2=C(C1c1ccccc1Cl)S(=O)(=O)CCCC2 (centres unmarked) [Compound 15, Thiepino[3,2-b]pyridine-3-carboxylic acid, 4-(2-chlorophenyl)-1,4,6,7,8,9-hexahydro-2-(2-thienyl)-, ethyl ester, 5,5-dioxide]

- IC50: 2300 nM
SMILES: CCOC(=O)C1=C(c2cccs2)NC2=C(C1c1cccc(Cl)c1)S(=O)(=O)CCCC2 (centres unmarked) [Compound 16, Thiepino[3,2-b]pyridine-3-carboxylic acid, 4-(3-chlorophenyl)-1,4,6,7,8,9-hexahydro-2-(2-thienyl)-, ethyl ester, 5,5-dioxide]

- IC50: 500 nM
SMILES: CN(CCOC(=O)C1=C(c2ccccc2)NC2=C(C1c1ccccc1Cl)S(=O)(=O)CCCC2)Cc1cccs1 (centres unmarked) [Compound 17, Thiepino[3,2-b]pyridine-3-carboxylic acid, 4-(2-chlorophenyl)-1,4,6,7,8,9-hexahydro-2-phenyl-, 2-[methyl(2-thienylmethyl)amino]ethyl ester, 5,5-dioxide]

- IC50: 26000 nM
SMILES: CN(CCOC(=O)C1=C(c2ccccc2)NC2=C(C1c1cccc([N+](=O)[O-])c1)S(=O)(=O)CCCC2)Cc1cccs1 (centres unmarked) [Compound 18, Thiepino[3,2-b]pyridine-3-carboxylic acid, 1,4,6,7,8,9-hexahydro-4-(3-nitrophenyl)-2-phenyl-, 2-[methyl(2-thienylmethyl)amino]ethyl ester, 5,5-dioxide]

- IC50: 1290 nM
SMILES: CN(CCOC(=O)C1=C(c2ccccc2)NC2=C(C1c1cccc(Cl)c1)S(=O)(=O)CCCC2)Cc1cccs1 (centres unmarked) [Compound 19, Thiepino[3,2-b]pyridine-3-carboxylic acid, 4-(3-chlorophenyl)-1,4,6,7,8,9-hexahydro-2-phenyl-, 2-[methyl(2-thienylmethyl)amino]ethyl ester, 5,5-dioxide]

- IC50: 6540 nM
SMILES: CCOC(=O)C1=C(c2cccs2)NC2=C(C1c1cccc([N+](=O)[O-])c1)S(=O)(=O)CCCC2 (centres unmarked) [Compound 20, Thiepino[3,2-b]pyridine-3-carboxylic acid, 1,4,6,7,8,9-hexahydro-4-(3-nitrophenyl)-2-(2-thienyl)-, ethyl ester, 5,5-dioxide]

- IC50: 2000 nM
SMILES: CCOC(=O)C1=C(c2cccnc2)NC2=C(C1c1ccccc1Cl)S(=O)(=O)CCCC2 (centres unmarked) [Compound 21, Thiepino[3,2-b]pyridine-3-carboxylic acid, 4-(2-chlorophenyl)-1,4,6,7,8,9-hexahydro-2-(3-pyridinyl)-, ethyl ester, 5,5-dioxide]

- IC50: 2000 nM
SMILES: CCOC(=O)C1=C(c2cccnc2)NC2=C(C1c1cccc(Cl)c1)S(=O)(=O)CCCC2 (centres unmarked) [Compound 22, Thiepino[3,2-b]pyridine-3-carboxylic acid, 4-(3-chlorophenyl)-1,4,6,7,8,9-hexahydro-2-(3-pyridinyl)-, ethyl ester, 5,5-dioxide]

- IC50: 2000 nM
SMILES: CCOC(=O)C1=C(c2cccnc2)NC2=C(C1c1cccc(C(F)(F)F)c1F)S(=O)(=O)CCCC2 (centres unmarked) [Compound 23, Thiepino[3,2-b]pyridine-3-carboxylic acid, 4-[2-fluoro-3-(trifluoromethyl)phenyl]-1,4,6,7,8,9-hexahydro-2-(3-pyridinyl)-, ethyl ester, 5,5-dioxide]

- IC50: 149 nM
SMILES: CC1=C(C(=O)OCCN(C)Cc2ccsc2)C(c2ccccc2Cl)C2=C(CCCCS2(=O)=O)N1 (centres unmarked) [Compound 24, Thiepino[3,2-b]pyridine-3-carboxylic acid, 4-(2-chlorophenyl)-1,4,6,7,8,9-hexahydro-2-methyl-, 2-[methyl(3-thienylmethyl)amino]ethyl ester, 5,5-dioxide]

- IC50: 815 nM
SMILES: CC1=C(C(=O)OCCN(C)Cc2ccsc2)C(c2c(O)cccc2Cl)C2=C(CCCCS2(=O)=O)N1 (centres unmarked) [Compound 25, Thiepino[3,2-b]pyridine-3-carboxylic acid, 4-(2-chloro-6-hydroxyphenyl)-1,4,6,7,8,9-hexahydro-2-methyl-, 2-[methyl(3-thienylmethyl)amino]ethyl ester, 5,5-dioxide]

- IC50: 51 nM
SMILES: CC1=C(C(=O)OCCN(C)Cc2ccsc2)C(c2cccc([N+](=O)[O-])c2)C2=C(CCCCS2(=O)=O)N1 (centres unmarked) [Compound 26, Thiepino[3,2-b]pyridine-3-carboxylic acid, 1,4,6,7,8,9-hexahydro-2-methyl-4-(3-nitrophenyl)-, 2-[methyl(3-thienylmethyl)amino]ethyl ester, 5,5-dioxide]
